Measured values taken from ChEMBL document CHEMBL5442219.

Columns and labels:
Conditions in all cases: Compound concentration 10 µM
[1] = target: T1, Alpha-1B adrenergic receptor (Homo sapiens) (UniProt P35368)
T1 sequence (whole entry): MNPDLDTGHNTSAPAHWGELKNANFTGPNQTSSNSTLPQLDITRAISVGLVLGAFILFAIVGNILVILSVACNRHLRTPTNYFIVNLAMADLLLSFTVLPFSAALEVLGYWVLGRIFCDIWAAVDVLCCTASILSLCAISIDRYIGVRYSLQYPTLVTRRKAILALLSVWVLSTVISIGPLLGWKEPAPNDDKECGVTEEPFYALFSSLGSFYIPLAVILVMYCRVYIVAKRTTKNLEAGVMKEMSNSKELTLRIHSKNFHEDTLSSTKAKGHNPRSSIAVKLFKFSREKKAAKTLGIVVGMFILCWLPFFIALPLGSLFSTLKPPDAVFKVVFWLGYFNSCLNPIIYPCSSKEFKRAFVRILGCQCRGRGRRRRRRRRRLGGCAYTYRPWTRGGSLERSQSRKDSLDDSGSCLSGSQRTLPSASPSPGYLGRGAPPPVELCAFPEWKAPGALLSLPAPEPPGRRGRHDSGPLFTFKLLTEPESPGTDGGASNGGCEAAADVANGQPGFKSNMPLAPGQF
Description: PDSP Primary Binding target: ADRA1B - Compounds are tested at 10 uM concentration, plate are incubated at room temperature in the dark for 90 minutes. Reaction are stopped by vacuum filtration onto 0.3% polyethyleneimine soaked filter mats using Filtermate harvester. Scintilation cocktail is then melted onto microwave-dried filters on a hot plate and the radio activity is counted in Microbia counter.

[2] = target: T2, Alpha-2C adrenergic receptor (Homo sapiens) (UniProt P18825)
T2 sequence (whole entry): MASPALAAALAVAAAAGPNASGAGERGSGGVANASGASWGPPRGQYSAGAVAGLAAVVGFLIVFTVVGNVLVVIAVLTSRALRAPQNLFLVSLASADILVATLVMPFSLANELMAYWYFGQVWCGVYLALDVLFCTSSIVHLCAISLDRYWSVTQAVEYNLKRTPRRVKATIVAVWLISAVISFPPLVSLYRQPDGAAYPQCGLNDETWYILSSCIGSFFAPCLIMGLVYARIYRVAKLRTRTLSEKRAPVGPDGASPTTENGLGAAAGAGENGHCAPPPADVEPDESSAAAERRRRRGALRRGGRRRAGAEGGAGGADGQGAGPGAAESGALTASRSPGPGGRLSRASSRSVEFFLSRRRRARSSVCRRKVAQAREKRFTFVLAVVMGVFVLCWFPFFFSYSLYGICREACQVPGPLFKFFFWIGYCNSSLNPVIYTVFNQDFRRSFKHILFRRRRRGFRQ
Description: PDSP Primary Binding target: ADRA2C - Compounds are tested at 10 uM concentration, plate are incubated at room temperature in the dark for 90 minutes. Reaction are stopped by vacuum filtration onto 0.3% polyethyleneimine soaked filter mats using Filtermate harvester. Scintilation cocktail is then melted onto microwave-dried filters on a hot plate and the radio activity is counted in Microbia counter.

[3] = target: Beta-1 adrenergic receptor (Homo sapiens) (UniProt P08588)
Chain of Beta-1 adrenergic receptor (Homo sapiens) (P08588 whole entry, looked up): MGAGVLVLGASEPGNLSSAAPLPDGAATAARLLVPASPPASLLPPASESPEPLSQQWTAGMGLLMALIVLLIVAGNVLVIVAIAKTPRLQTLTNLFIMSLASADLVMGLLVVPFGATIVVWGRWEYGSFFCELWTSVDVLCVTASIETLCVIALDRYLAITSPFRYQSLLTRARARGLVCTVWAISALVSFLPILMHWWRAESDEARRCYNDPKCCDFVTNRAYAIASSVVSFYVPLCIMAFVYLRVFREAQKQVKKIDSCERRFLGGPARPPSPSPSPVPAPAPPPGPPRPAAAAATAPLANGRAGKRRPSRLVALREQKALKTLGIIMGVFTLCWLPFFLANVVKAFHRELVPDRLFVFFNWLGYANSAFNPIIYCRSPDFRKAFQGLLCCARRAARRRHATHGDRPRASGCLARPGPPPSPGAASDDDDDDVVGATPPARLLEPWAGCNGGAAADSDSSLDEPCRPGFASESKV
Description: PDSP Primary Binding target: ADRB1 - Compounds are tested at 10 uM concentration, plate are incubated at room temperature in the dark for 90 minutes. Reaction are stopped by vacuum filtration onto 0.3% polyethyleneimine soaked filter mats using Filtermate harvester. Scintilation cocktail is then melted onto microwave-dried filters on a hot plate and the radio activity is counted in Microbia counter.

[4] = target: Beta-2 adrenergic receptor (Homo sapiens) (UniProt P07550)
Chain of Beta-2 adrenergic receptor (Homo sapiens) (P07550 whole entry, looked up): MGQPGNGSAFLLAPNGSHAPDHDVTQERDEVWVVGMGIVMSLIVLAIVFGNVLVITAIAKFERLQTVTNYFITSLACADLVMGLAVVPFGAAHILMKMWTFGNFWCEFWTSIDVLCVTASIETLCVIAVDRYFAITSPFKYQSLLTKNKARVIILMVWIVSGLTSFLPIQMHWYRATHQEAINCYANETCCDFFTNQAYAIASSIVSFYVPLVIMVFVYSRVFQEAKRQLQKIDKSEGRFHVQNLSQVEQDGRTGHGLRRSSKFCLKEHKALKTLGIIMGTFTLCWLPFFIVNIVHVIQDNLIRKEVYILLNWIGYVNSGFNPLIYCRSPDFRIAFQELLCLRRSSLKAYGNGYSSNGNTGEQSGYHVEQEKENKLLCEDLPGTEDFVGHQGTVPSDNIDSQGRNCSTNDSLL
Description: PDSP Primary Binding target: ADRB2 - Compounds are tested at 10 uM concentration, plate are incubated at room temperature in the dark for 90 minutes. Reaction are stopped by vacuum filtration onto 0.3% polyethyleneimine soaked filter mats using Filtermate harvester. Scintilation cocktail is then melted onto microwave-dried filters on a hot plate and the radio activity is counted in Microbia counter.

[5] = target: D(1A) dopamine receptor (Homo sapiens) (UniProt P21728)
Chain of D(1A) dopamine receptor (Homo sapiens) (P21728 whole entry): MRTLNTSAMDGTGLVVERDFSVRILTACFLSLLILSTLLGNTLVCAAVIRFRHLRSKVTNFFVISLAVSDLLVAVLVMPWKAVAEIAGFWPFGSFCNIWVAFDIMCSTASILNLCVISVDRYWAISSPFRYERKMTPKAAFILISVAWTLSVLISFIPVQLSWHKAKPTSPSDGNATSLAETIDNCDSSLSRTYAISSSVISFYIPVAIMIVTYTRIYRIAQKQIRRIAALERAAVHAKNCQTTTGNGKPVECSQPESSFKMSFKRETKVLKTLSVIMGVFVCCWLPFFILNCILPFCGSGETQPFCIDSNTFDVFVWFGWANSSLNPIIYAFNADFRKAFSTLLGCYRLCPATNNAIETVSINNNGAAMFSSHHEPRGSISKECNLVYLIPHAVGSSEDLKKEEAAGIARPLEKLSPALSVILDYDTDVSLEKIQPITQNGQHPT
Description: PDSP Primary Binding target: DRD1 - Compounds are tested at 10 uM concentration, plate are incubated at room temperature in the dark for 90 minutes. Reaction are stopped by vacuum filtration onto 0.3% polyethyleneimine soaked filter mats using Filtermate harvester. Scintilation cocktail is then melted onto microwave-dried filters on a hot plate and the radio activity is counted in Microbia counter.

[6] = target: D(1B) dopamine receptor (Homo sapiens) (UniProt P21918)
Chain of D(1B) dopamine receptor (Homo sapiens) (P21918 whole entry): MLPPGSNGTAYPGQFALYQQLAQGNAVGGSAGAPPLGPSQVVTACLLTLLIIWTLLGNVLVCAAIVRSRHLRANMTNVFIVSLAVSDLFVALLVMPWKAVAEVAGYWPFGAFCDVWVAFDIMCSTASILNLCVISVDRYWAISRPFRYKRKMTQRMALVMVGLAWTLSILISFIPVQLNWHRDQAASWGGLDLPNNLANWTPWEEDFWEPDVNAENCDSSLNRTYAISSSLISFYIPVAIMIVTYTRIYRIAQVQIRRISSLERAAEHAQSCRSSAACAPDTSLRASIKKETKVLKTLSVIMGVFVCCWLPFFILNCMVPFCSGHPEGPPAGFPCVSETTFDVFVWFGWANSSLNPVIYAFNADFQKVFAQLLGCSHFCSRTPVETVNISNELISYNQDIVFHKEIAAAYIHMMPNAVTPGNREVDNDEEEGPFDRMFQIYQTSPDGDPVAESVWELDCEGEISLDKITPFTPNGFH
Description: PDSP Primary Binding target: DRD5 - Compounds are tested at 10 uM concentration, plate are incubated at room temperature in the dark for 90 minutes. Reaction are stopped by vacuum filtration onto 0.3% polyethyleneimine soaked filter mats using Filtermate harvester. Scintilation cocktail is then melted onto microwave-dried filters on a hot plate and the radio activity is counted in Microbia counter.

[7] = target: 5-hydroxytryptamine receptor 1D (Homo sapiens) (UniProt P28221)
Chain of 5-hydroxytryptamine receptor 1D (Homo sapiens) (P28221 whole entry): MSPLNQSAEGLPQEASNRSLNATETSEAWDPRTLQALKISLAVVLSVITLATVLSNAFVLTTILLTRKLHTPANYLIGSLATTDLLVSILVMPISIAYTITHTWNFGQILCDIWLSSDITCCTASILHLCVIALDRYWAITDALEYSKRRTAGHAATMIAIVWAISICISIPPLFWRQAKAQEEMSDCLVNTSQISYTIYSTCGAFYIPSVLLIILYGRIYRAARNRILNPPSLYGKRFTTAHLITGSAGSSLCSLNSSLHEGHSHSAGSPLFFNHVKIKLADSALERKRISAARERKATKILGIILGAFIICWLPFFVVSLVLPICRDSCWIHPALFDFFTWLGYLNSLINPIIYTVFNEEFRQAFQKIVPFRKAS
Description: PDSP Primary Binding target: HTR1D - Compounds are tested at 10 uM concentration, plate are incubated at room temperature in the dark for 90 minutes. Reaction are stopped by vacuum filtration onto 0.3% polyethyleneimine soaked filter mats using Filtermate harvester. Scintilation cocktail is then melted onto microwave-dried filters on a hot plate and the radio activity is counted in Microbia counter.

[8] = target: 5-hydroxytryptamine receptor 6 (Homo sapiens) (UniProt P50406)
Description: PDSP Primary Binding target: HTR6 - Compounds are tested at 10 uM concentration, plate are incubated at room temperature in the dark for 90 minutes. Reaction are stopped by vacuum filtration onto 0.3% polyethyleneimine soaked filter mats using Filtermate harvester. Scintilation cocktail is then melted onto microwave-dried filters on a hot plate and the radio activity is counted in Microbia counter.

[9] = target: 5-hydroxytryptamine receptor 7 (Homo sapiens) (UniProt P34969)
Description: PDSP Primary Binding target: HTR7 - Compounds are tested at 10 uM concentration, plate are incubated at room temperature in the dark for 90 minutes. Reaction are stopped by vacuum filtration onto 0.3% polyethyleneimine soaked filter mats using Filtermate harvester. Scintilation cocktail is then melted onto microwave-dried filters on a hot plate and the radio activity is counted in Microbia counter.

[10] = target: Delta-type opioid receptor (Homo sapiens) (UniProt P41143)
Chain of Delta-type opioid receptor (Homo sapiens) (P41143 whole entry): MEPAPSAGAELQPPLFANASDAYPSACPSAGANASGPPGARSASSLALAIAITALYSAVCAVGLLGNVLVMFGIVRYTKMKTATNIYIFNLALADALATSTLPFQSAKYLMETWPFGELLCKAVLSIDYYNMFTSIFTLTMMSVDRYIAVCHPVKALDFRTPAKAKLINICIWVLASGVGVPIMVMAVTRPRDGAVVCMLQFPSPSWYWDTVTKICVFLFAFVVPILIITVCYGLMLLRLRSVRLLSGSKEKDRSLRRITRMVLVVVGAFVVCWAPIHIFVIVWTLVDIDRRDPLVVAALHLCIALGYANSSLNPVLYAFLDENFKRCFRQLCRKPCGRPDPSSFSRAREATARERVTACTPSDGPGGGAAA
Description: PDSP Primary Binding target: OPRD1 - Compounds are tested at 10 uM concentration, plate are incubated at room temperature in the dark for 90 minutes. Reaction are stopped by vacuum filtration onto 0.3% polyethyleneimine soaked filter mats using Filtermate harvester. Scintilation cocktail is then melted onto microwave-dried filters on a hot plate and the radio activity is counted in Microbia counter.

[11] = target: Mu-type opioid receptor (Homo sapiens) (UniProt P35372)
Chain of Mu-type opioid receptor (Homo sapiens) (P35372 whole entry): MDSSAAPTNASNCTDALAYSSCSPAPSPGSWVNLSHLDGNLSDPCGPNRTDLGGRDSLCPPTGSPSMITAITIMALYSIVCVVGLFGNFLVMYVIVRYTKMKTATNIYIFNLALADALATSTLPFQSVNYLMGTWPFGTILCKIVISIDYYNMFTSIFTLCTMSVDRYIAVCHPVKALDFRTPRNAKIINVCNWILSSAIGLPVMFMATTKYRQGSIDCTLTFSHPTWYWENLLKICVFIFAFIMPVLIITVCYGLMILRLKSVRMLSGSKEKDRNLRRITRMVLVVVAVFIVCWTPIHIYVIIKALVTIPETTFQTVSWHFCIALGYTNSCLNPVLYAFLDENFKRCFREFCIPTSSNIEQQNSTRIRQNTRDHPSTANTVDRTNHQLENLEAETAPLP
Description: PDSP Primary Binding target: OPRM1 - Compounds are tested at 10 uM concentration, plate are incubated at room temperature in the dark for 90 minutes. Reaction are stopped by vacuum filtration onto 0.3% polyethyleneimine soaked filter mats using Filtermate harvester. Scintilation cocktail is then melted onto microwave-dried filters on a hot plate and the radio activity is counted in Microbia counter.

[12] = target: Sodium-dependent noradrenaline transporter (Homo sapiens) (UniProt P23975)
Chain of Sodium-dependent noradrenaline transporter (Homo sapiens) (P23975 whole entry): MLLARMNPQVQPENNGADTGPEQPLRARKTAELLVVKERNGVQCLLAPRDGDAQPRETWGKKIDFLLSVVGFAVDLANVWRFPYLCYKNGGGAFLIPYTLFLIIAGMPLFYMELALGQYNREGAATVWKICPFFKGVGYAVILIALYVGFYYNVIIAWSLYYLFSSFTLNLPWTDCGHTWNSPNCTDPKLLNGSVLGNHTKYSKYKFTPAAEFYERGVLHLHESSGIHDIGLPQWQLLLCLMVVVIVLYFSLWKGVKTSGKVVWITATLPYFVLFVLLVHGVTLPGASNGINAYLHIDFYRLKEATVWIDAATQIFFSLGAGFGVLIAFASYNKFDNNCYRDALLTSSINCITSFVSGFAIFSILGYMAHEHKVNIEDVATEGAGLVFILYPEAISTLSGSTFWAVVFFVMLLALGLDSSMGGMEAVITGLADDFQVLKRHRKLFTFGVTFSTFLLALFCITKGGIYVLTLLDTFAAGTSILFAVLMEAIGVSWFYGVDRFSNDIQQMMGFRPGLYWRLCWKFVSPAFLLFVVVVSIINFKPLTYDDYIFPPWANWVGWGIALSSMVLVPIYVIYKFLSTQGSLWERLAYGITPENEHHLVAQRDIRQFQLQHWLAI
Description: PDSP Primary Binding target: SLC6A2 - Compounds are tested at 10 uM concentration, plate are incubated at room temperature in the dark for 90 minutes. Reaction are stopped by vacuum filtration onto 0.3% polyethyleneimine soaked filter mats using Filtermate harvester. Scintilation cocktail is then melted onto microwave-dried filters on a hot plate and the radio activity is counted in Microbia counter.

[13] = target: Sodium-dependent dopamine transporter (Homo sapiens) (UniProt Q01959)
Chain of Sodium-dependent dopamine transporter (Homo sapiens) (Q01959 whole entry): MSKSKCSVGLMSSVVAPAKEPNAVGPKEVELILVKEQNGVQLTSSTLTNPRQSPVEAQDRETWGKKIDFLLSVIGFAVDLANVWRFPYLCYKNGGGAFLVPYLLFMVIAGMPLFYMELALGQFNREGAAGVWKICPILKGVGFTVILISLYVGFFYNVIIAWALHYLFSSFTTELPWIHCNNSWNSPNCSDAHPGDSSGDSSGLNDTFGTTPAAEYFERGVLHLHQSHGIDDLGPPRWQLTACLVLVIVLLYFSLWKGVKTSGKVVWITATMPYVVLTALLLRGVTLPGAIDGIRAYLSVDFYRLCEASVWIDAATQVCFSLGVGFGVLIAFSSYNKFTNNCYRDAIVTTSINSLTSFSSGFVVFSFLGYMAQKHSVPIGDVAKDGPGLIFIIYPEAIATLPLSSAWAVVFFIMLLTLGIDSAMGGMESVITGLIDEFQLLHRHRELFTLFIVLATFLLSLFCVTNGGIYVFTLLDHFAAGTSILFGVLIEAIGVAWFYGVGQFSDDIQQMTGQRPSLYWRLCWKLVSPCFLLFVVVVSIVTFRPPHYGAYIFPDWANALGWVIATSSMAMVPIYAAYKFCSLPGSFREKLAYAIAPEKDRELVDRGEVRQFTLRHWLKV
Description: PDSP Primary Binding target: SLC6A3 - Compounds are tested at 10 uM concentration, plate are incubated at room temperature in the dark for 90 minutes. Reaction are stopped by vacuum filtration onto 0.3% polyethyleneimine soaked filter mats using Filtermate harvester. Scintilation cocktail is then melted onto microwave-dried filters on a hot plate and the radio activity is counted in Microbia counter.

[14] = target: Sigma intracellular receptor 2 (Homo sapiens) (UniProt Q5BJF2)
Chain of Sigma intracellular receptor 2 (Homo sapiens) (Q5BJF2 whole entry): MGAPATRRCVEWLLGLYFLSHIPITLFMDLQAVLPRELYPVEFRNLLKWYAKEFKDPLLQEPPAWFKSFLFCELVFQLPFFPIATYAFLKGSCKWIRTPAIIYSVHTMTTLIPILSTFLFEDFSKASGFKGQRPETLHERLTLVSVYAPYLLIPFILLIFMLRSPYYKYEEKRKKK
Description: PDSP Primary Binding target: TMEM97 - Compounds are tested at 10 uM concentration, plate are incubated at room temperature in the dark for 90 minutes. Reaction are stopped by vacuum filtration onto 0.3% polyethyleneimine soaked filter mats using Filtermate harvester. Scintilation cocktail is then melted onto microwave-dried filters on a hot plate and the radio activity is counted in Microbia counter.

[15] = target: T3, Muscarinic acetylcholine receptor M4 (Homo sapiens) (UniProt P08173)
T3 sequence (whole entry): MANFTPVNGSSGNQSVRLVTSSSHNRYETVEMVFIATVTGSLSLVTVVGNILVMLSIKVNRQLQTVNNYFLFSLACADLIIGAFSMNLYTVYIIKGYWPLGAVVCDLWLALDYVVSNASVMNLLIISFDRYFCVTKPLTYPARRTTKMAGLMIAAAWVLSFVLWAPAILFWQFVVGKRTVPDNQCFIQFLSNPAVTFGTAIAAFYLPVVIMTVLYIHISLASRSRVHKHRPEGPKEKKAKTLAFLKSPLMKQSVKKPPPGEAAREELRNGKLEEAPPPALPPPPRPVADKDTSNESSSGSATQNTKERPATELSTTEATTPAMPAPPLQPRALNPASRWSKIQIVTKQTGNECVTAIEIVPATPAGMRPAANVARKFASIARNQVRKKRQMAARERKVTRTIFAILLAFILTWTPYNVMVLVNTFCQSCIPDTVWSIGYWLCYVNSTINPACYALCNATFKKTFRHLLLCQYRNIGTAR
Description: PDSP Primary Binding target: CHRM4 - Compounds are tested at 10 uM concentration, plate are incubated at room temperature in the dark for 90 minutes. Reaction are stopped by vacuum filtration onto 0.3% polyethyleneimine soaked filter mats using Filtermate harvester. Scintilation cocktail is then melted onto microwave-dried filters on a hot plate and the radio activity is counted in Microbia counter.

[16] = target: 5-hydroxytryptamine receptor 2A (Homo sapiens) (UniProt P28223)
Chain of 5-hydroxytryptamine receptor 2A (Homo sapiens) (P28223 whole entry): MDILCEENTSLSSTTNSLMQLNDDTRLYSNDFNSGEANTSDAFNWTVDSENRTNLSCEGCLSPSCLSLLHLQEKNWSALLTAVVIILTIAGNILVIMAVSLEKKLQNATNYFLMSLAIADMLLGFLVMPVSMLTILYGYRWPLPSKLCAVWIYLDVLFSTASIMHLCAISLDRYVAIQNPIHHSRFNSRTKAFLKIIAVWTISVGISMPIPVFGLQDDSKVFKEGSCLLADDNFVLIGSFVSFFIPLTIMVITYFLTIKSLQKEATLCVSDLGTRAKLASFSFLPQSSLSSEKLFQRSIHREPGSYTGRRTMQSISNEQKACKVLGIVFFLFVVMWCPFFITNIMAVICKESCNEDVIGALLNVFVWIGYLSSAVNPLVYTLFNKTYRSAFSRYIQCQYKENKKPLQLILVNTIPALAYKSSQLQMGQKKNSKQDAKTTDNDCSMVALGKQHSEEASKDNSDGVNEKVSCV
Description: PDSP Primary Binding target: HTR2A - Compounds are tested at 10 uM concentration, plate are incubated at room temperature in the dark for 90 minutes. Reaction are stopped by vacuum filtration onto 0.3% polyethyleneimine soaked filter mats using Filtermate harvester. Scintilation cocktail is then melted onto microwave-dried filters on a hot plate and the radio activity is counted in Microbia counter.

[17] = target: T4, Muscarinic acetylcholine receptor M1 (Homo sapiens) (UniProt P11229)
T4 sequence (whole entry): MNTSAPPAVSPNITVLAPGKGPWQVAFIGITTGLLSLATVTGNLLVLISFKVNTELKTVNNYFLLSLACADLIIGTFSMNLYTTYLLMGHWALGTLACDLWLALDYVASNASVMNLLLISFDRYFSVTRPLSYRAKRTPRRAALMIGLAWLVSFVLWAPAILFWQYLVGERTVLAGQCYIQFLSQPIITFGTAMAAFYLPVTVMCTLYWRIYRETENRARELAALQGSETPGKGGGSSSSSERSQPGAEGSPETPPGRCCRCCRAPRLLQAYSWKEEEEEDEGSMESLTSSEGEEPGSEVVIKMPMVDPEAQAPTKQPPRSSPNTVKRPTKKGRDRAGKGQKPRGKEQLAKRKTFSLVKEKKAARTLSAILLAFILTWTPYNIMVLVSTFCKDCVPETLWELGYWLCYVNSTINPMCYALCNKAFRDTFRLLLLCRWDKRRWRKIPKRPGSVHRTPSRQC
Description: PDSP Primary Binding target: CHRM1 - Compounds are tested at 10 uM concentration, plate are incubated at room temperature in the dark for 90 minutes. Reaction are stopped by vacuum filtration onto 0.3% polyethyleneimine soaked filter mats using Filtermate harvester. Scintilation cocktail is then melted onto microwave-dried filters on a hot plate and the radio activity is counted in Microbia counter.

Compound | inhibition [1] | inhibition [2] | inhibition [3] | inhibition [4] | inhibition [5] | inhibition [6] | inhibition [7] | inhibition [8] | inhibition [9] | inhibition [10] | inhibition [11] | inhibition [12] | inhibition [13] | inhibition [14] | inhibition [15] | inhibition [16] | inhibition [17]
COc1cccc([C@H](O)C2CCN(CCc3ccc(F)cc3)CC2)c1OC | 57.3% | 26.7% | 32.2% | 5.48% | 63.9% | 4.09% | 73.8% | 5.14% | 34.5% | 4.4% | 8.06% | 45.2% | 15.6% | 95.9% | – | – | –
OC1(c2ccc(Cl)cc2)CCN(Cc2c[nH]c3ccccc23)CC1 | 37.1% | 30.4% | 38.7% | -1.99% | 70.3% | 40.1% | 46.1% | -7.57% | 10.4% | 3.7% | 65% | 63.5% | 80% | 97.8% | -10% | 66.9% | –
O=C(c1cc2c(cc1F)OC(c1ccc(F)cc1)(c1ccc(Cl)cc1Cl)O2)N1CCOCC1 (centres undefined) | – | 38.9% | 8.99% | 5.79% | 48% | 75.9% | 20.9% | -8.59% | 5.01% | 24.5% | 52.7% | 52% | 59% | 72.4% | – | 57.3% | –
O=C(Cc1ccc(Cl)c(Cl)c1)N1CCCC[C@H]1CN1CCCC1 | 11.4% | 24.5% | -3.57% | 7.92% | – | -9.99% | 14.8% | -5.65% | 31.1% | 17.6% | 49.6% | 23.7% | 52.7% | 92.3% | 16.7% | 6.03% | 9.74%
Cc1cccc([C@H](C)c2c[nH]cn2)c1C | 54.8% | 99.1% | 3.18% | 20.7% | -3.69% | 11.4% | 145% | 1.41% | 68.1% | -4.15% | – | 50.9% | 39.2% | 37.8% | – | 26.8% | –
CCCCN1CCC(COC(=O)c2cc(Cl)c(N)c3c2OCCO3)CC1 | -1.39% | 78.8% | 10.7% | 14.1% | 3.42% | -0.98% | 54.6% | 20.1% | 40% | 0.6% | 9.58% | 42.9% | 19.5% | 96.8% | 5.81% | 62.2% | –
CCCCc1nc(Cl)c(CO)n1Cc1ccc(-c2ccccc2-c2nnn[nH]2)cc1 | -2.24% | 3.84% | 8.7% | – | 10.3% | -1.67% | 43.4% | 17.6% | 40% | 19.2% | -1.17% | 11.8% | – | 27.4% | -5.3% | – | –
Nc1nc(NCCc2ccc(O)cc2)nc2nc(-c3ccco3)nn12 | 2.08% | 9.88% | 22.3% | -3.4% | -2.49% | 27.8% | 19.7% | – | 13.5% | 2.38% | 0.03% | 44.1% | 23.6% | 90.6% | – | 17.1% | –
CN(C)C(=O)C(CCN1CCC(O)(c2ccc(Cl)cc2)CC1)(c1ccccc1)c1ccccc1 | 52.4% | 39.4% | -4.2% | 44.6% | 2.24% | 1.53% | 55.2% | 14.9% | 20.8% | 91.5% | – | 25.8% | 64.3% | 95.5% | -6.62% | – | –
Cc1nc2sccn2c(=O)c1CCN1CCC(=C(c2ccc(F)cc2)c2ccc(F)cc2)CC1 | 95.9% | 94.9% | 19% | 1.44% | 99.5% | 74.1% | – | 98.1% | 90.2% | 17.7% | 63.5% | 53.7% | 68.9% | 98.7% | 1.18% | 91% | 18.5%
S=C(NCCCc1c[nH]cn1)NCCCN(Cc1ccc(Cl)c(Cl)c1)c1ccc(Br)cn1 | 89.3% | 101% | 49.2% | 40% | 61.5% | 51.4% | 149% | 74% | 74.9% | 27% | 28.7% | 94.1% | 94.8% | 97.7% | – | 85.2% | 60.7%
Cc1ccccc1C(=O)Nc1ccc(C(=O)N2CCCC(O)c3cc(Cl)ccc32)c(C)c1 (centres undefined) | 0.66% | 9.34% | 12.2% | – | 9.57% | 8.81% | 88.5% | 1.21% | 8.44% | 7.13% | 53.2% | 20.8% | 21.9% | 91.8% | -6.02% | 12.9% | -6.43%
